Source: patent US20180021456A1, “SELF-ASSEMBLED TARGETED INCLUSION COMPLEXES FOR DRUG DELIVERY” (UNIVERSITY OF SOUTH FLORIDA, priority 2015, published 2018)

Tests used:
[1] = system: extracellular signal-regulated kinases 1 and 2 (ERK1 and ERK2); assay: Rapid phosphorylation of ERK1 and ERK2 (MAPK) after treatment; assay type: cell-based; details: treatment at 1 μM
Source text: Western Blot: In all cases, unless otherwise indicated, the western blots were visualized by Bio-Rad digital imaging system and analyzed by Quantity One 1-D analyzing software.

MCF-7 cells = assay: Competition assay of estrone and tamoxifen with CDE1-Ada-DOX uptake in MCF-7 cells (flow cytometry); assay type: cell-based, human; details: CDE1-Ada-DOX 2 μM
Protocol: FIG. 17 is a bar graph of the fluorescence intensity for competition assay of CDE1-Ada-DOX at 2 μM in MCF-7 cells in the presence of estrone and tamoxifen at 0.1-10 μM. The results are represented as means±SD from triplicate determinations.
Flow cytometer: In all cases, unless otherwise indicated, the flow cytometric analysis was performed on a FACS (Becton Dickinson Immunocytometry Systems, San Jose, Calif.) by counting 10,000 events.
Moreover, the competition assay of estrone and tamoxifen with CDE1-Ada-DOX in MCF-7 cells was conducted and is shown in FIG. 17. […] Moreover, the ER antagonist-tamoxifen, which is the most prescribed medicine to treat hormone receptor-positive breast cancer, is capable of binding to the estrogen receptor but blocks its activity. […] While for both estrone and tamoxifen, inhibition saturated at concentrations higher than 5 μM. […] Addition of an Ada-DOX guest led to the decomplexation of the estrogen moiety. […] The results are consistent and replicable with the TEM/SEM observations.

Compound | time of maximum MAPK phosphorylation [1] | inhibition at 5 µM (MCF-7 cells; Homo sapiens, MCF7, competitor at 5 μM) | inhibition of CDE1-Ada-DOX uptake (MCF-7 cells; competitor at 1 μM and above (p<0.001))
C[C@]12CC[C@@H]3c4ccc(O)cc4CC[C@H]3[C@@H]1CC[C@@H]2O [E2, 17β-estradiol] | 10 min |  | 
CC/C(=C(\c1ccccc1)c1ccc(OCCN(C)C)cc1)c1ccccc1 [tamoxifen] |  | 80% | significantly inhibited
